Test results published in US20200397795A1, “PROPHYLACTIC TREATMENT OF VENOUS THROMBOEMBOLISM” (JANSSEN PHARMACEUTICALS, INC., priority 2019, published 2020).

Experiments:
[1] = test system: venous thromboembolism (VTE) in MAGELLAN subpopulation; experiment: Retrospective analysis of MAGELLAN subpopulation (five bleeding risk factors excluded): efficacy; format: in vivo, human; conditions: for Primary efficacy endpoint outcome, incidence: Day 10, per-protocol analysis set; for Asymptomatic lower extremity proximal DVT, incidence / VTE-related death, incidence: Day 35
Text: (§1) Using key exclusion criteria from Study 2: MARINER to exclude subjects with a higher risk of bleeding, a subpopulation of Study 1: MAGELLAN was retrospectively analyzed to re-evaluate benefit-risk in this subpopulation, which included efficacy endpoints of symptomatic VTE and VTE-related death and safety endpoints of major bleeding events. The key exclusion criteria from Study 2: MARINER that were retrospectively applied to the Study 1: MAGELLAN population for this analysis included: active gastroduodenal ulcer within 3 months of randomization/currently symptomatic; any bleeding within 3 months prior to randomization or during index hospitalization; active cancer at randomization; medical history of severe bronchiectasis/pulmonary cavitation; or dual antiplatelet therapy at baseline. Subjects that met one or more of these criteria prior to or at randomization using standardized MedDRA queries or preferred terms of MedDRA version 13.1 based on data entered into the case report forms in the original MAGELLAN database were excluded from the subpopulation analysis.
(§2) The MAGELLAN study (Study 1) randomized 8,101 patients from 562 sites in 52 countries and the safety population of patients that received at least one dose of study medication was 7,998 patients. The five key risk factors for major bleeding events in MAGELLAN were identified using study data forms as described herein. With the retrospective use of these risk factors, 1,551 patients were excluded from MAGELLAN and the remaining 6,447 patients, approximately 80% of MAGELLAN, represented the subpopulation. Patients in both treatment groups had no differences in baseline characteristics, and had similar medical histories, with at least 99% of patients having complete immobility or decreased mobility and median total number of days in hospital of 10.

[2] = test system: bleeding events in MAGELLAN subpopulation; experiment: Retrospective analysis of MAGELLAN subpopulation: safety (bleeding); format: in vivo
Text: as §1, §2

[3] = post-discharge phase, entire population and subpopulation

Row | Compound | Primary efficacy endpoint, RR vs enoxaparin ([1]; Day 10, per-protocol) | Primary efficacy endpoint outcome, incidence [1] [%] | Asymptomatic lower extremity proximal DVT, incidence [1] [%] | VTE-related death, incidence [1] [%] | Primary efficacy outcome, RR vs enoxaparin ([1]; Day 35, mITT) | Primary efficacy outcome, incidence ([1]; Day 35, mITT) [%] | Major bleeding, relative risk ([2]; human, in vivo, 10 day) | Clinically relevant bleeding (major and NMCR), incidence ([2]; human, in vivo, 35 day) [%] | Clinically relevant bleeding, RR vs enoxaparin ([2]; human, in vivo, 35 day) | Major bleeding, RR vs enoxaparin-placebo ([2]; human, in vivo, 35 day) | Major bleeding, incidence ([2]; human, in vivo, 35 day) [%] | Fatal bleeds, number [2, 3] | Fatal bleeds, incidence ([2]; subpopulation, Day 10) | Fatal bleeds, number ([2]; subpopulation, Day 10) | Fatal bleeds, incidence ([2]; subpopulation, Day 35) | Clinically relevant bleeding (major and NMCR), incidence ([2]; subpopulation, Day 35) [%] | Major bleeding, incidence ([2]; subpopulation, through Day 35) [%]
1 | O=C(NC[C@H]1CN(c2ccc(N3CCOCC3=O)cc2)C(=O)O1)c1ccc(Cl)s1 [Rivaroxaban, 5-chloro-N-({(5S)-2-oxo-3-[4-(3-oxo-4-morpholinyl)phenyl]-1,3,oxazolidin-5-yl}methyl)-2-thiophenecarboxamide] | 0.820 | 2.4 | 3.0 | 0.6 | 0.68 | 3.9 | 1.19 | 3.5 | 2.35 | 1.48 | 0.68 | 2 | less than 0.1% | 1 | less than 0.1% |  | 
2 | Enoxaparin |  | 3.0 | 4.4 | 1.0 |  | 5.7 |  |  |  |  |  | 0 |  | 1 |  | 1.5 | 0.47
